Experimental data reported in PMC6112376, “Comprehensive Analyses and Prioritization of Tox21 10K Chemicals Affecting Mitochondrial Function by in-Depth Mechanistic Studies” (Environmental Health Perspectives, 2018).
Where two headings read alike, the source gives them in different places.

How the values were obtained:
rat primary hepatocytes [1] = assay: MMP assay in rat primary hepatocytes; conditions: for IC50: read-out: MMP assays IC50 (µM) Rat Hepatocytes
HepG2 cells [2] = conditions: for IC50: read-out: MMP assays IC50 (µM) HepG2
rat primary hepatocytes [3] = system: rat primary hepatocytes
HepG2 cells [4] = conditions: cited from earlier work
[5] = read-out: MMP assays IC50 (µM) qHTS-HepG2
[6] = read-out: MMP assays IC50 (µM), qHTS-HepG2
[7] = HepG2 cells, single number from one experiment

Row | Molecule | IC50 (rat primary hepatocytes [1]; Rattus norvegicus, Hepatocyte) [µM] | MMP assays IC50 (µM) HepG2 (HepG2 cells [2]) | MMP assays efficacy (%) HepG2 (HepG2 cells [2]) | MMP assays efficacy (%) Rat Hepatocytes (rat primary hepatocytes [3]) | MMP assays efficacy (%) qHTS-HepG2 (HepG2 cells [4]) | IC50 (HepG2 cells [4]; [5]) [µM] | MMP assays IC50 (µM) Rat Hepatocytes (rat primary hepatocytes [1]) | MMP assays IC50 (µM) qHTS-HepG2 (HepG2 cells [4]) | IC50 (rat primary hepatocytes [1]) [µM] | IC50 (HepG2 cells [4]; [6]) [µM] | IC50 (HepG2 cells [2]) [µM] | IC50 (rat primary hepatocytes [1]; rat hepatocytes, mean ± SD of three experiments) [µM] | MMP assays efficacy (%) HepG2 (HepG2 cells [2]; [7]) [%] | IC50 (HepG2 cells [2]; [7]) [µM]
1 | CC1(C)C(/C=C(\Cl)C(F)(F)F)C1C(=O)OC(C#N)c1cccc(Oc2ccccc2)c1 (stereo not drawn) [Cyhalothrin] | 33.8 ± 9.96 | inactive | inactive | -55±25% | -73±14% | 33.6 ± 5.79 | – | – | – | – | – | – | – | –
2 | O=C1c2ccccc2C(=O)C1c1ccccc1 [Phenindione] | – | inactive | inactive | inactive | inactive | – | inactive | inactive | – | – | – | – | – | –
3 | O=[Se](O)O [Selenious acid] | – | inactive | inactive | -75±56% | -68±13% | – | – | – | 44.1 ± 26.9 | 16 ± 22.8 | – | – | – | –
4 | O=C(c1ccc(OCCN2CCCCC2)cc1)c1c(-c2ccc(O)cc2)sc2cc(O)ccc12 [Raloxifene] | 22.4 ± 24.1 | – | -96% | -92±39% | -121±25% | – | – | – | – | 5.05 ± 3.99 | 17.8 | – | – | –
5 | Tributyltin chloride | – | – | -96% | -136±58% | -97±11% | – | – | – | 8.95 ± 1.03 | 0.11 ± 0.02 | 0.89 | – | – | –
6 | N#Cc1c2ccccc2cc2ccccc12 [Compound 9-Cyanoanthracene] | 18 ± 5.46 | inactive | inactive | -32±6% | -74±32% | 6.85 ± 18.1 | – | – | – | – | – | – | – | –
7 | CCCCCCCCCCCC(=O)[O][Sn]([CH2]CCC)([CH2]CCC)[O]C(=O)CCCCCCCCCCC [Dibutyltin dilaurate] | – | – | -86% | -52+36% | inactive | – | – | inactive | 22.4 ± 7.17 | – | 27.5 | – | – | –
8 | CCCCCCCCCCCCCC[P+](CCCC)(CCCC)CCCC.[Cl-] [Tributyltetradecylphosphonium chloride] | – | – | – | -93±15% | -82±17% | – | – | – | 7.66 ± 0.5 | 0.71 ± 0.15 | 1.12 | – | – | –
9 | CCCCC/C(=C\c1ccccc1)CO [alpha-Amylcinnamyl alcohol] | – | – | -69% | -85±44% | -87±10% | 38.1 ± 17.4 | – | – | 4.83 ± 4.07 | – | 56.2 | – | – | –
10 | O=C(Nc1ccc(Br)cc1)c1cc(Br)cc(Br)c1O [Tribromosalan] | – | – | – | -96±35% | – | – | – | – | – | 1.12 | – | 0.55 ± 0.36 | -111 | 0.97
11 | O=C(NC(=O)c1c(F)cccc1F)Nc1ccc(OC(F)(F)C(F)OC(F)(F)F)c(Cl)c1 (stereo not drawn) [Novaluron] | – | inactive | inactive | inactive | inactive | – | inactive | inactive | – | – | – | – | – | –
12 | O=C1[C@H](CC[C@H](O)c2ccc(F)cc2)[C@@H](c2ccc(O)cc2)N1c1ccc(F)cc1 | – | – | -112% | -52±2% | -81±11% | 25.6 ± 3.54 | – | – | 16.6 ± 20.1 | – | – | – | – | –
13 | Cc1ccc(S(=O)(=O)NC2CCCCC2)cc1 [N-Cyclohexyl-4-methyl benzenesulfonamide] | – | inactive | inactive | -46±15% | -83±10% | – | – | – | 38.1 ± 25.6 | 36.1 ± 21 | – | – | – | –
14 | Cl.Nc1ccc(Nc2ccccc2)cc1 | – | – | -54% | inactive | -69±28% | – | inactive | – | – | 5.82 ± 6.96 | 28.2 | – | – | –
15 | NC(=O)c1cc([N+](=O)[O-])cc([N+](=O)[O-])c1 [Nitromide] | – | inactive | inactive | inactive | inactive | – | inactive | inactive | – | – | – | – | – | –
16 | O=[N+]([O-])c1ccc2ncccc2c1 [Compound 6-Nitroquinoline] | 44.8 ± 16.3 | inactive | inactive | -29±7% | -51±5% | 30.7 ± 11.5 | – | – | – | – | – | – | – | –
17 | Cc1cccc(C)c1Nc1ncccc1C(=O)O [Metanixin] | – | – | -101% | -93±28% | -122±21% | – | – | – | 21 ± 1.37 | 26 ± 2.11 | 21.8 | – | – | –
18 | Cc1cccc(C)c1OCC(=O)N[C@@H](Cc1ccccc1)[C@@H](O)C[C@H](Cc1ccccc1)NC(=O)[C@H](C(C)C)N1CCCNC1=O [Lopinavir;ABT-738] | – | inactive | inactive | -27±0% | -66±16% | – | – | – | 15.4 ± 21.8 | 32.7 ± 1.32 | – | – | – | –
19 | COc1cc(Cl)ccc1Oc1ccc(Cl)cc1Cl [Methyl triclosan] | – | – | -95% | -95±27% | -79±13% | – | – | – | 45.9 ± 14.7 | 25.5 ± 1.67 | 39.8 | – | – | –
20 | COc1cc([C@@H]2c3cc4c(cc3[C@@H](O)[C@H]3COC(=O)[C@H]23)OCO4)cc(OC)c1O [4'-Demethylepipodophyllotoxin] | – | – | -63% | inactive | -51±8% | 2.66 ± 3.92 | inactive | – | – | – | 2.18 | – | – | –
21 | O=C(Nc1cccc([N+](=O)[O-])c1)c1cc2ccccc2cc1O | – | – | -93% | -89±5% | -91±2% | 0.24 ± 0.09 | – | – | 1.6 ± 0.26 | – | 0.28 | – | – | –
22 | CC(=O)O[C@H]1C[C@H](O[C@H]2[C@@H](O)C[C@H](O[C@H]3[C@@H](O)C[C@H](O[C@H]4CC[C@@]5(C)[C@H](CC[C@@H]6[C@@H]5CC[C@]5(C)[C@@H](C7=CC(=O)OC7)[C@@H](O)C[C@]65O)C4)O[C@@H]3C)O[C@@H]2C)O[C@H](C)[C@H]1O[C@@H]1O[C@H](CO)[C@@H](O)[C@H](O)[C@H]1O [Lanatoside B] | – | – | -96% | inactive | -68±14% | – | inactive | – | – | 1.1 ± 0.2 | 0.69 | – | – | –
23 | O=[N+]([O-])c1ccc2nc[nH]c2c1 [Compound 6-Nitrobenzimidazole] | – | inactive | inactive | inactive | -53±6% | 36.4 ± 10.8 | inactive | – | – | – | – | – | – | –
24 | CC(C)(C)c1ccc(CN2CCN(C(c3ccccc3)c3ccc(Cl)cc3)CC2)cc1.Cl.Cl (stereo not drawn) [Buclizine dihydrochloride] | – | inactive | inactive | inactive | -52±10% | 32.2 ± 2.1 | inactive | – | – | – | – | – | – | –
